According to patent US20260325533A1, “CDK INHIBITOR COMPOUNDS” (ALEKSIA THERAPEUTICS, INC., priority 2023, published 2026):
Read-outs that look alike come from different tables or passages of the source.

Key:
Format in all cases: biochemical
CDK2/CCNE1 = CDK2/CCNE1 (Homo sapiens, UniProt P24941); test: CDK2 homogeneous time-resolved fluorescence (HTRF) kinase assay; conditions: CDK2/CCNE; <25 nM; read-out: CDK2/CCNE IC50 <25 nM
In short: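 Compounds were titrated 11-point, half-log from typically 10 μM against 3 nM CDK2/cyclin E1 at 1 mM ATP, with a 20 min enzyme preincubation. Phosphorylation of 50 nM ULight-4E-BP1 peptide over 60 min at 23 °C was detected by europium anti-phospho antibody TR-FRET.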

CDK1/CCNB1 = CDK1/CCNB1 (Homo sapiens, UniProt P06493); test: CDK1 homogeneous time-resolved fluorescence (HTRF) kinase assay; conditions: CDK1/CCNB
In short: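 Kinase activity is measured as Lance signal (665 nm, or 665/615 nm ratio) from europium-labelled anti-phospho-Thr37/46 antibody binding ULight-4E-BP1 peptide. Reactions contain 0.5 nM enzyme, 1 mM ATP, 1% DMSO and run 60 min at 23 °C before EDTA quench.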

CDK4/CCND3 = CDK4/CCND3 (Homo sapiens, UniProt P11802); test: CDK4 homogeneous time-resolved fluorescence (HTRF) kinase assay; conditions: CDK4/CCND
In short: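 CDK4/CCND3 at 1.5 nM was preincubated with compound for 20 min at 23 °C, then reacted for 60 min with 1 mM ATP and 50 nM ULight-4E-BP1 (Thr37/46) peptide. The reaction was stopped with EDTA, and phosphorylation was read by HTRF with a Eu-anti-phospho antibody. IC50 values came from 11-point half-log titrations, typically from 10 μM.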

CDK6/CCND1 = CDK6/CCND1 (Homo sapiens, UniProt Q00534); test: CDK6 homogeneous time-resolved fluorescence (HTRF) kinase assay; conditions: CDK6/CCND
In short: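 Enzyme pre-incubated 20 min at 23 °C with compound, then reacted 60 min at 23 °C with 1 mM ATP and 50 nM ULight-4E-BP1 (Thr37/46) peptide; 1 nM enzyme, 1% DMSO. EDTA-stopped, Eu-anti-phospho antibody TR-FRET read (665 nm or 665/615 ratio); 11-point half-log titration from 10 μM gave IC50.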

[1] = 25-250 nM marked x, read-out: CDK1/CCNB IC50 25-250 nM
[2] = 25-250 nM marked x, read-out: CDK4/CCND IC50 25-250 nM
[3] = 25-250 nM marked x, read-out: CDK6/CCND IC50 25-250 nM
[4] = >250 nM marked x, read-out: CDK1/CCNB IC50 >250 nM
[5] = <25 nM, read-out: CDK6/CCND IC50 <25 nM

Sequence of CDK4/CCND3 (P11802 whole entry): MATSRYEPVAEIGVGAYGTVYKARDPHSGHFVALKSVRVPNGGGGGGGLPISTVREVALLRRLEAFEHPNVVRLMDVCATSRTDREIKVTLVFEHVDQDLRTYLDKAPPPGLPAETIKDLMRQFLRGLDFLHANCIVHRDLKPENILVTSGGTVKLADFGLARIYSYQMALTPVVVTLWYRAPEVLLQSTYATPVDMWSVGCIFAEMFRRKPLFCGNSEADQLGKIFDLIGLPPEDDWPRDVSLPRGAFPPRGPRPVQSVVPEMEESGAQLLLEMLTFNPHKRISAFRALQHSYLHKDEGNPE
Sequence of CDK4/CCND3 (P30281 whole entry partner): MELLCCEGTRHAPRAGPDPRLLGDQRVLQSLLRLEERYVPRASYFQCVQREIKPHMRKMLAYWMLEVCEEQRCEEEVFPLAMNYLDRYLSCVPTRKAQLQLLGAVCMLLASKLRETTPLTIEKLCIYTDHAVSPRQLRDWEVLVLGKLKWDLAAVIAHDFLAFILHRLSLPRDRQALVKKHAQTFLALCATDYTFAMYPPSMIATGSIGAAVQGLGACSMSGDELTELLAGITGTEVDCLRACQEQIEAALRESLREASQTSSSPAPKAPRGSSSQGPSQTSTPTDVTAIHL
Sequence of CDK1/CCNB1 (P06493 whole entry): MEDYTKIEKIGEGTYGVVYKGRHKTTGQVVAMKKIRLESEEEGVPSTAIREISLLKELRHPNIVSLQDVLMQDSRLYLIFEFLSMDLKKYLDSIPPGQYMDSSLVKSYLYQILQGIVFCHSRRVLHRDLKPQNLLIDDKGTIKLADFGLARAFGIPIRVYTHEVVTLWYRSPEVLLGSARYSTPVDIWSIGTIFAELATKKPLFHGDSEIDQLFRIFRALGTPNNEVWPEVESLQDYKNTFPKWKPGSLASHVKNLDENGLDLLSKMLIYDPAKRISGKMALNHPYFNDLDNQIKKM
Sequence of CDK1/CCNB1 (P14635 whole entry partner): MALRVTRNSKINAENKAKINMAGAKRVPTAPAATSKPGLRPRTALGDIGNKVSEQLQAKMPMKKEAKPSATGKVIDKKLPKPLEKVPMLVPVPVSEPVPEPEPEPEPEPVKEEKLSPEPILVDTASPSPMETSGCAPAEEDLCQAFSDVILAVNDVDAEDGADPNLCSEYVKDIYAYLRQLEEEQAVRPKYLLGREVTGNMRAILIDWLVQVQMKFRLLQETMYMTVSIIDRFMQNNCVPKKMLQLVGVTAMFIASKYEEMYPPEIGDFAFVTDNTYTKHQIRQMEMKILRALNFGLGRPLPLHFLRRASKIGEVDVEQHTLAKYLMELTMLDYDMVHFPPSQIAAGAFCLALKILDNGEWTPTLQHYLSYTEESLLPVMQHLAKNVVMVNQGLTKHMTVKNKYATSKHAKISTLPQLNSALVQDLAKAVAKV
Sequence of CDK6/CCND1 (Q00534 whole entry): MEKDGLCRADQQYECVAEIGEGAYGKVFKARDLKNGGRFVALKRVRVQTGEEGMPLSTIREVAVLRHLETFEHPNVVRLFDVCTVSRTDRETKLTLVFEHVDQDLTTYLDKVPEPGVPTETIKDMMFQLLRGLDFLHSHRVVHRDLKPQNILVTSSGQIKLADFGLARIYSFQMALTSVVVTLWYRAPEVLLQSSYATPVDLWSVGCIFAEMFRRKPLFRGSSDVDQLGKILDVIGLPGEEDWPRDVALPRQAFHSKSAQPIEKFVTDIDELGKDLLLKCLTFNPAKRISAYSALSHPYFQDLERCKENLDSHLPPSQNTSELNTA
Sequence of CDK6/CCND1 (P24385 whole entry partner): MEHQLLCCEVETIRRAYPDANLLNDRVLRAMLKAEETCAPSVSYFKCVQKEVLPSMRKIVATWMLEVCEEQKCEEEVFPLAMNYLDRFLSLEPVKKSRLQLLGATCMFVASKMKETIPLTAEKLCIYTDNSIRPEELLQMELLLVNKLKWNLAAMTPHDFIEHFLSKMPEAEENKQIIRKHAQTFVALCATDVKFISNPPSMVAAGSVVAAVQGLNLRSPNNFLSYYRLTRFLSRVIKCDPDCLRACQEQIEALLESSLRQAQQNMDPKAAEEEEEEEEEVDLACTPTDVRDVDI

Row | Compound | IC50 (CDK2/CCNE1) [nM] | IC50 (CDK1/CCNB1; [1]) [nM] | IC50 (CDK4/CCND3; [2]) [nM] | IC50 (CDK6/CCND1; [3]) [nM] | IC50 (CDK1/CCNB1; [4]) [nM] | IC50 (CDK6/CCND1; [5]) [nM] | IC50 (CDK4/CCND3; <25 nM, read-out: CDK4/CCND IC50 <25 nM) [nM]
1 | CS(=O)(=O)N1CCC(Nc2cc3c(-c4cccc(O)c4)nccc3cn2)CC1 [Ex 69, 3-(7-((1-(methylsulfonyl)piperidin-4-yl)amino)-2,6-naphthyridin-1-yl)phenol] | < 25 | 25 to 250 | 25 to 250 | 25 to 250 | – | – | –
2 | CS(=O)(=O)N1CCC(Nc2cc3c(-c4ccc5ocnc5c4)nccc3cn2)CC1 [Ex 70, 5-(benzo[d]oxazol-5-yl)-N-(1-(methylsulfonyl)piperidin-4-yl)-2,6-naphthyridin-3-amine] | < 25 | – | 25 to 250 | – | > 250 | < 25 | –
3 | COCc1cccc(-c2nccc3cnc(NC4CCN(S(C)(=O)=O)CC4)cc23)c1 [Ex 71, 5-(3-(methoxymethyl)phenyl)-N-(1-(methylsulfonyl)piperidin-4-yl)-2,6-naphthyridin-3-amine] | < 25 | 25 to 250 | 25 to 250 | 25 to 250 | – | – | –
4 | CS(=O)(=O)N1CCC(Nc2cc3c(-c4cccc(N)c4)nccc3cn2)CC1 [Ex 72, 5-(3-aminophenyl)-N-(1-(methylsulfonyl)piperidin-4-yl)-2,6-naphthyridin-3-amine] | < 25 | – | 25 to 250 | 25 to 250 | > 250 | – | –
5 | CS(=O)(=O)N1CCC(Nc2cc3c(-c4ccc(N)cc4)nccc3cn2)CC1 [Ex 73, 5-(4-aminophenyl)-N-(1-(methylsulfonyl)piperidin-4-yl)-2,6-naphthyridin-3-amine] | < 25 | 25 to 250 | 25 to 250 | – | – | < 25 | –
6 | CS(=O)(=O)N1CCC(Nc2cc3c(-c4ccc(C#N)cc4)nccc3cn2)CC1 [Ex 74, 4-(7-((1-(methylsulfonyl)piperidin-4-yl)amino)-2,6-naphthyridin-1-yl)benzonitrile] | < 25 | – | 25 to 250 | 25 to 250 | > 250 | – | –
7 | CS(=O)(=O)N1CCC(Nc2cc3c(-c4cccc(C#N)c4)nccc3cn2)CC1 [Ex 75, 3-(7-((1-(methylsulfonyl)piperidin-4-yl)amino)-2,6-naphthyridin-1-yl)benzonitrile] | < 25 | – | 25 to 250 | 25 to 250 | > 250 | – | –
8 | CS(=O)(=O)N1CCC(Nc2cc3c(-c4ccc5cn[nH]c5c4)nccc3cn2)CC1 [Ex 76, 5-(1H-indazol-6-yl)-N-(1-(methylsulfonyl)piperidin-4-yl)-2,6-naphthyridin-3-amine] | < 25 | 25 to 250 | – | – | – | < 25 | < 25
9 | CS(=O)(=O)N1CCC(Nc2cc3c(-c4ccc5[nH]ncc5c4)nccc3cn2)CC1 [Ex 77, 5-(1H-indazol-5-yl)-N-(1-(methylsulfonyl)piperidin-4-yl)-2,6-naphthyridin-3-amine] | < 25 | – | 25 to 250 | 25 to 250 | > 250 | – | –
10 | CS(=O)(=O)N1CCC(Nc2cc3c(-c4ccc(CO)cc4)nccc3cn2)CC1 [Ex 78, (4-(7-((1-(methylsulfonyl)piperidin-4-yl)amino)-2,6-naphthyridin-1-yl)phenyl)methanol] | < 25 | – | 25 to 250 | – | > 250 | < 25 | –
11 | CS(=O)(=O)N1CCC(Nc2cc3c(-c4ccccc4OC(F)(F)F)nccc3cn2)CC1 [Ex 81, N-(1-(methylsulfonyl)piperidin-4-yl)-5-(2-(trifluoromethoxy)phenyl)-2,6-naphthyridin-3-amine] | < 25 | – | 25 to 250 | 25 to 250 | > 250 | – | –
12 | CS(=O)(=O)N1CCC(Nc2cc3c(-c4cncs4)nccc3cn2)CC1 [Ex 82, N-(1-(methylsulfonyl)piperidin-4-yl)-5-(thiazol-5-yl)-2,6-naphthyridin-3-amine] | < 25 | – | 25 to 250 | 25 to 250 | > 250 | – | –
13 | CS(=O)(=O)N1CCC(Nc2cc3c(C4=CCOCC4)nccc3cn2)CC1 [Ex 87, 5-(3,6-dihydro-2H-pyran-4-yl)-N-(1-(methylsulfonyl)piperidin-4-yl)-2,6-naphthyridin-3-amine] | < 25 | – | 25 to 250 | 25 to 250 | > 250 | – | –
